These are literature values, as cited in patent publication US20070053983A1 (priority 2005, published 2007).

For the series, the system named is β-adrenergic receptors. The following applies: man; reduced heart rate, cardiac output and exercise systolic pressure; inhibition of isoproterenol-induced and reflex orthostatic tachycardia.

Molecules are shown by their SMILES.

Take `COCCc1ccc(OCC(O)CNC(C)C)cc1` (stereo not shown) [Metoprolol]: the β-blocking activity entry is listed as “confirmed the β-blocking activity”.
